Results from patent publication US8399512B2, “Biocompatible biodegradable fumagillin analog conjugates” (Mersana Therapeutics, Inc., priority 2007, dated 2013).

Key:
[1] = biological target: human MetAP-2 enzyme (Homo sapiens, UniProt P50579); assay: MetAP-2 inhibition (release of AMC from Met-Gly-Pro-AMC); assay type: biochemical
Method: The test samples were evaluated for their ability to inhibit human MetAP-2 enzyme. The compounds were added at varying concentrations to human MetAP-2 enzyme (6 nM) in a buffered medium containing 20 mM Hepes, pH 7.4, 100 mM KCl, 0.1 mM Co(II), 10% glycerol, 5 mg/ml of L-Amino acid oxidase, 10 mg/ml of peroxidase, 10 mg/ml of o-dianisidine, and 2 mM of Met-Ser-Ala at 37° C. After 10 minutes incubation the reaction is started by adding the substrate Met-Gly-Pro-AMC to 2 mM and the release of AMC is measured with a Decan Plate reader (Excitation at 345 nm, emission at 445 nm). The kinetic data is recorded at 30 sec intervals for 30 min. Table 1 lists some of the conjugates and compounds tested along with their approximate IC50 values for inhibiting Met-AP2.

[2] = tested on: human umbilical vein endothelial cells (HUVECs); assay: Inhibitory effect on HUVEC cell growth (MTS/PES colorimetry); assay type: cell-based; details: Homo sapiens, 120 h, cultured 5 days, MTS/PES absorbance 490 nm
Method: Using human umbilical vein endothelial cells (HUVECs), the effect of the fumagillin analog conjugates and the fumagillin analogs on cell growth was evaluated.
The HUVECs were added to M199 medium supplemented with 20% FBS, after which the cells were incubated at 37° C. under 5% CO2. 96-well plates were seeded at 5,000 cells/well in a total volume of 100 μL. The cells were left overnight to attach to the plate. Cells were subcultured a maximum of 15 times before being discarded.
To evaluate the inhibitory activity of the fumagillin conjugate or the fumagillin analog alone on the growth of HUVEC cells, the conjugate or fumagillin analog was dissolved in the required amount of 0.9% saline, vortexed briefly to wet and disperse the solids, followed by vortexing for a total of 30 min. […] The cells were treated with the conjugate solution or fumagillin analog solution at various concentrations ranging from 30 nM to 0.01 nM, and cultured for 5 days at 37° C.
Colorimetry was performed to determine the extent of cell growth by adding 20 μL of MTS/PES reagent to each well, incubation for 4 h at 37° C. followed by measuring the absorbance at 490 nm.

[3] = tested on: B16F10 tumor cells; assay: Tumor growth delay in B16F10 mouse melanoma; assay type: in vivo; details: IV, q3d × 4, BDF1 mice
Method: BDF1 female mice (N=6) with 1×10^6 B16F10 tumor cells positioned subcutaneous in the flank were treated with various fumagillin conjugates of the invention. Tumor growth was monitored in parallel with positive and negative controls of cyclophosphamide and saline respectively. Treatment began when tumors reached an average size of 80-120 mg and tumor volumes were measured two times per week until animals reached an endpoint tumor volume of 2 grams or 45 days, whichever came first. Conjugates were administered as solutions in saline intravenously at dose levels of 30-100 mg/kg (expressed as fumagillin analog equivalents) on a schedule of q3dx4. Treatment outcomes were assessed in terms of percent tumor growth delay (% TGD), (see FIG. 1) defined as the percent increase in median time to endpoint for mice treated with an agent compared to those treated with saline.

[4] = tested on: B16F10 tumor cells; assay: Tumor growth delay in B16F10 mouse melanoma; assay type: in vivo; details: 80 mg/kg fumagillin analog equiv., IV, qod × 4, BDF1 mice
[5] = Open field activity levels in mice; assay type: in vivo, mouse; details: C57B1/6 mice, 50-100 mg/kg for four weeks; conjugates IV, TNP-470 subcutaneously; versus saline
Method: C57B1/6 female mice (N=8) were housed until they reached 11 weeks of age. Animals were then regularly administered with fumagillin conjugates or TNP-470 and their activity levels monitored in an open field arena. Activity levels were assessed with saline as a control. Conjugates were administered as solutions in saline intravenously at dose levels of 50-100 mg/kg (expressed as fumagillin-analog equivalents) and TNP-470 was administered subcutaneously at dose levels of 50-100 mg/kg. Dosing was performed for four weeks on schedules ranging from q2d to once weekly, and activity levels were observed four times throughout the study: (1) prior to compound administration, (2) after one week of dosing, (3) after two weeks of dosing, and (4) following the final week of dosing. Animals were placed in the open field arena for 10 minutes per trial and their activity monitored in terms of travel distance, peripheral squares crossed, center squares crossed, and rearing events.

[6] = 80 mg/kg fumagillin analog equiv.

Chain of human MetAP-2 enzyme (P50579 whole entry): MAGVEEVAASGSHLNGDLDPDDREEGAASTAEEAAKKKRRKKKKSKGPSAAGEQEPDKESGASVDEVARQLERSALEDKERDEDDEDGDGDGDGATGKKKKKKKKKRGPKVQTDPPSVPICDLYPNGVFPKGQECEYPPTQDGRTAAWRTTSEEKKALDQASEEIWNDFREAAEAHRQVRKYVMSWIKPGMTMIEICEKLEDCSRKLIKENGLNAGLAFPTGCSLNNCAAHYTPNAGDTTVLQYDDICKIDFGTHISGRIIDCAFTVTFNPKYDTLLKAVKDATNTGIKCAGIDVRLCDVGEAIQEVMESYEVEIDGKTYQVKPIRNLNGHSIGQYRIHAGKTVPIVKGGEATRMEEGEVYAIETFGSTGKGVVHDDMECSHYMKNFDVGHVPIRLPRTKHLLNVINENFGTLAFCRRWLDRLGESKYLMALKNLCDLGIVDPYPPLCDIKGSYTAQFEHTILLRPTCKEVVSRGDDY

Row | SMILES | IC50 [1] [nM] | IC50 [2] [nM] | % TGD [3, 6] | further results
1 | CO[C@H]1[C@H](C2(C)O[C@@H]2CC=C(C)C)[C@]2(CC[C@H]1OC(=O)NCc1ccc(N)cc1)CO2 (some centres unmarked) [Compound 8] | < 10 | < 25 |  | 
2 | CO[C@H]1[C@H](C2(C)O[C@@H]2CC=C(C)C)[C@]2(CC[C@H]1OC(=O)NC(=O)CSCCNC(=O)C1CCCN1C(=O)OCC1c3ccccc3-c3ccccc31)CO2 (some centres unmarked) [Compound 31] |  | < 25 | 20-50% | 
3 | COc1ccc2[nH]cc(CCC(=O)O[C@@H]3CC[C@]4(CO4)[C@@H](C4(C)O[C@@H]4CC=C(C)C)[C@@H]3OC)c2c1 (some centres unmarked) [Compound 32] |  | < 25 | 20-50% | 
4 | CO[C@H]1[C@H](C2(C)O[C@@H]2CC=C(C)C)[C@]2(CC[C@H]1OC(=O)C1CCC(CNC(=O)OCC3c4ccccc4-c4ccccc43)CC1)CO2 (some centres unmarked) [Compound 33] |  | > 30 |  | % TGD ([3]; 65 mg/kg fumagillin analog equiv.): 5-20%
5 | CO[C@H]1[C@H](C2(C)O[C@@H]2CC=C(C)C)[C@]2(CC[C@H]1OC(=O)NC(=O)CSc1cccc(N)c1)CO2 (some centres unmarked) [Compound 35] |  | < 25 | 20-50% | 
6 | CO[C@H]1[C@H](C2(C)O[C@@H]2CC=C(C)C)[C@]2(CC[C@H]1NC(=O)C13CCC(C(=O)NCCCO)(CC1)CC3)CO2 (some centres unmarked) [Compound 38] |  | 25 to 100 | 5-20% | 
7 | CO[C@@H]1[C@H](NC(=O)NC(=O)CSc2ccc(N)cc2)CC[C@]2(CO2)[C@H]1[C@@]1(C)O[C@@H]1CC=C(C)C [Compound 39] | < 10 | < 25 |  | 
8 | CO[C@H]1[C@H](C2(C)O[C@@H]2CC=C(C)C)[C@]2(CC[C@H]1NC(=O)C13CCC(C(=O)O)(CC1)CC3)CO2 (some centres unmarked) [Compound 40] |  | 25 to 100 |  | % TGD [4]: 20-50%
9 | CO[C@H]1[C@H](C2(C)O[C@@H]2CC=C(C)C)[C@]2(CC[C@H]1NC(=O)CCl)CO2 (some centres unmarked) [Compound 44] |  | < 25 | 5-20% | 
10 | CO[C@H]1[C@H](C2(C)O[C@@H]2CC=C(C)C)[C@]2(CC[C@H]1OC(=O)NCCc1ccc(NC(=O)[C@H](C)N)cc1)CO2 (some centres unmarked) [Compound 51] | < 10 | < 25 |  | 
11 | CO[C@H]1C([C@@]2(C)O[C@@H]2CC=C(C)C)[C@]2(CC[C@H]1OC(=O)N[C@@H](C(N)=O)C(C)C)CO2 (some centres unmarked) [PPI-2458, reference compound] | < 10 |  |  | 
12 | CO[C@H]1C([C@@]2(C)O[C@@H]2CC=C(C)C)[C@]2(CC[C@H]1OC(=O)NC(=O)CCl)CO2 (some centres unmarked) [TNP-470, reference compound] | < 10 |  |  | rearing-event activity levels [5]: increased rearing-event activity levels
